What was measured:
[1] = phase II clinical trial; ref 3a; cited from earlier work
HDAC1 = HDAC1 (Homo sapiens, UniProt Q13547); experiment: cell-free HDAC isoform inhibition assay, HDAC1
[2] = tested on: acetylated tubulin in B16F10 cells; experiment: western blot for accumulation of acetylated tubulin in B16F10 cells; type: cell-based
B16F10 [3] = experiment: antiproliferation study, B16F10 melanoma cell line
B16F10 [4] = experiment: verapamil; conditions: B16F10, verapamil at 100 µM, data not shown
A375 = experiment: antiproliferation study, A375 melanoma cell line; conditions: SAHA as control HDACi
[5] = increasing drug concentrations (5–50 µM)

HDAC1, sequence (Q13547 whole entry, species assumed, canonical isoform): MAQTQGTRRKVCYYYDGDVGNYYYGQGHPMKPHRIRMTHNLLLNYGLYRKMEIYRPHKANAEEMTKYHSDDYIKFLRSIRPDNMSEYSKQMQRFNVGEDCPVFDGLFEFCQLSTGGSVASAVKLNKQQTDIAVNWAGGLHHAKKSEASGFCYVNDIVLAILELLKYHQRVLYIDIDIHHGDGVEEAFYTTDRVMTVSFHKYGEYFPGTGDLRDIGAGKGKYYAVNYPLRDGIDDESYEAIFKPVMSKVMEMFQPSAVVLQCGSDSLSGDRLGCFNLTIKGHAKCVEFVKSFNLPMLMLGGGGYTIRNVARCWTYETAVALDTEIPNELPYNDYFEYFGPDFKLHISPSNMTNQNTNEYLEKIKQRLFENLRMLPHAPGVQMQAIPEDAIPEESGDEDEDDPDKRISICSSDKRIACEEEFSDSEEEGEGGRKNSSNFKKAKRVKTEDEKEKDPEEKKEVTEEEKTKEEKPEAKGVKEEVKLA

In the case of CCN(CC)CCNC(=O)c1ccc(I)cc1 [N-(2-(diethylamino)ethyl)-4-iodobenzamide], the “toxicity to the patients” value [1] is listed as “little toxicity”.

With CCN(CC)CCNC(=O)c1ccc(-c2cn(CCCCCC(=O)NO)nn2)cn1 [11a] the “selectivity for HDAC1 compared to HDAC6” value (HDAC1) was “almost indistinguishable”.

With O=C(CCCCCCC(=O)Nc1ccccc1)NO [SAHA, reference compound] the “accumulation of acetylated tubulin” value ([2]; 20 µM) was “significant accumulation of acetylated tubulin”.

For CCN(CC)CCNC(=O)c1ccc(C(=O)ONC(=O)CCCCCn2cc(-c3ccc4cc(OC)ccc4c3)nn2)cc1 [compound 14], the “accumulation of acetylated tubulin” value [2, 5] was “increase in the level of acetylated tubulin in a concentration dependent manner”, the “growth inhibitory effect compared with compound 10a” value (B16F10 [3]; B16F10, at 50 µM (Fig. 4)) was “much more potent than compound 10a” and the “growth inhibitory effect compared with compound 10a” value (B16F10 [3]; B16F10, dosed at 25 µM (Fig. 4)) was “same level of potency as compound 10a”.

For CCN(CC)CCNC(=O)c1ccc(-c2cn(CCCCCCC(=O)NO)nn2)cn1 [11b], the “effect of verapamil co-treatment on cytotoxic effect” value (B16F10 [4]) was “did not improve the cytotoxic effect”.

With COc1ccc2cc(-c3cn(CCCCCC(=O)NO)nn3)ccc2c1 [7u, reference compound] the “accumulation of acetylated tubulin” value ([2]; 20 µM) was “significant accumulation of acetylated tubulin”.

For CCN(CC)CCNC(=O)c1ccc(-c2cn(CCCCCCC(=O)NO)nn2)cc1 [10a], the “accumulation of acetylated tubulin” value [2, 5] was “gave a similar effect”, the “selectivity for HDAC1 compared to HDAC6” value (HDAC1) was “about four-fold” and the “fold less active relative to SAHA against A375” value (A375) was ~6 fold. The “fold less active relative to SAHA against B16F10” value (B16F10 [3]; SAHA as control HDACi) was “about 3 fold” and the “effect of verapamil co-treatment on cytotoxic effect” value (B16F10 [4]) was “did not improve the cytotoxic effect”.

From article PMC5314971 (Bioorganic & medicinal chemistry letters, 2017)
